Data as given in PubChem BioAssay (NCI).
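Protocol summary: plate cells (96-well), add compound at 5 concentrations, incubate 48 h, interpolate endpoints linearly. Definition used: TGI = concentration required for complete inhibition of growth.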

Legend:
Experiment in all cases: NCI anticancer screen, dose series, 48 h
SF-539 CNS = test system: SF-539 CNS
SNB-78 CNS = test system: SNB-78 CNS
SK-MEL-2 melanoma = test system: SK-MEL-2 melanoma
DMS 273 small cell lung = test system: DMS 273 small cell lung
HOP-62 NSCLC = test system: HOP-62 NSCLC
UACC-62 melanoma = test system: UACC-62 melanoma
SF-268 CNS = test system: SF-268 CNS
OVCAR-4 ovarian = test system: OVCAR-4 ovarian
UACC-257 melanoma = test system: UACC-257 melanoma
TK-10 renal = test system: TK-10 renal
MOLT-4 leukemia = test system: MOLT-4 leukemia
IGROV1 ovarian = test system: IGROV1 ovarian
CAKI-1 renal = test system: CAKI-1 renal
NCI-H522 lung = test system: NCI-H522 lung
ACHN renal = test system: ACHN renal
SNB-75 CNS = test system: SNB-75 CNS
HCT-116 colon = test system: HCT-116 colon
HT29 colon = test system: HT29 colon
KM20L2 colon = test system: KM20L2 colon
LXFL 529 NSCLC = test system: LXFL 529 NSCLC
OVCAR-5 ovarian = test system: OVCAR-5 ovarian
EKVX NSCLC = test system: EKVX NSCLC
KM12 colon = test system: KM12 colon
NCI-H226 lung = test system: NCI-H226 lung
SNB-19 CNS = test system: SNB-19 CNS
CCRF-CEM leukemia = test system: CCRF-CEM leukemia
A498 renal = test system: A498 renal
786-0 renal = test system: 786-0 renal
SK-MEL-28 melanoma = test system: SK-MEL-28 melanoma
SW-620 colon = test system: SW-620 colon
XF 498 CNS = test system: XF 498 CNS
U251 CNS = test system: U251 CNS
HOP-92 NSCLC = test system: HOP-92 NSCLC
COLO 205 colon = test system: COLO 205 colon
SK-MEL-5 melanoma = test system: SK-MEL-5 melanoma
SR leukemia = test system: SR leukemia
UO-31 renal = test system: UO-31 renal
SF-295 CNS = test system: SF-295 CNS
RPMI-8226 leukemia = test system: RPMI-8226 leukemia
OVCAR-8 ovarian = test system: OVCAR-8 ovarian
OVCAR-3 ovarian = test system: OVCAR-3 ovarian
HOP-18 NSCLC = test system: HOP-18 NSCLC
NCI-H460 lung = test system: NCI-H460 lung
MALME-3M melanoma = test system: MALME-3M melanoma
K-562 leukemia = test system: K-562 leukemia
NCI-H23 lung = test system: NCI-H23 lung
A549 NSCLC = test system: A549 NSCLC
HCT-15 colon = test system: HCT-15 colon
DLD-1 colon = test system: DLD-1 colon
M14 melanoma = test system: M14 melanoma
M19-MEL melanoma = test system: M19-MEL melanoma
SN12C renal = test system: SN12C renal
HL-60(TB) leukemia = test system: HL-60(TB) leukemia
LOX IMVI melanoma = test system: LOX IMVI melanoma
HCC-2998 colon = test system: HCC-2998 colon
RXF 393 renal = test system: RXF 393 renal
DMS 114 small cell lung = test system: DMS 114 small cell lung
SK-OV-3 ovarian = test system: SK-OV-3 ovarian

Measured: TGI

Cc1cccc(C)c1NC(=O)C(=O)CC(=O)c1cccc([N+](=O)[O-])c1
not listed: LOX IMVI melanoma | HCC-2998 colon | RXF 393 renal | DMS 114 small cell lung | SK-OV-3 ovarian
> 100 µM: all other assays above

O=c1nc(-c2ccccc2)cc(-c2ccccc2O)[nH]1
not listed: SK-MEL-2 melanoma | SK-MEL-5 melanoma
> 100 µM: all other assays above
